ChEMBL document CHEMBL1124224, “Synthetic polyamine analogues as antineoplastics” (J Med Chem, 1988)
“And” between values parts separate entries of the source, which are not always exact repeats. Equal values may be shown once.

Experiments:
L1210 [1] = experiment: Tested for inhibition of L1210 cell growth by the compound after 96 hr; format: functional, cell-based; conditions: Mus musculus, L1210, 96 h
L1210 [2] = experiment: Tested for inhibition of L1210 cell growth by the compound at a dose of 30 uM and after 48 hr; format: functional; conditions: Mus musculus, L1210, 48 h
L1210 [3] = experiment: Tested for inhibition of L1210 cell growth by the compound after 48 hr; format: functional, cell-based; conditions: Mus musculus, L1210, 48 h
L1210 [4] = experiment: Tested for inhibition of L1210 cell growth by the compound at a dose of 50 uM and after 48 hr; format: functional; conditions: Mus musculus, L1210, 48 h
L1210 [5] = experiment: Tested for L1210 cell growth as percent of control by the compound at a dose of 100 uM and after 48 hr; conditions: Mus musculus, L1210, 48 h
L1210 [6] = experiment: Tested for inhibition of L1210 cell growth by the compound at a dose of 30 uM and after 96 hr; format: functional; conditions: Mus musculus, L1210, 96 h
L1210 [7] = experiment: Tested for inhibition of L1210 cell growth by the compound at a dose of 25 uM and after 96 hr; No inhibition at 25 uM; format: functional, cell-based; conditions: Mus musculus
L1210 [8] = experiment: Tested for inhibition of L1210 cell growth by the compound at a dose of 25 uM and after 48 hr; No inhibition at 25 uM; format: functional, cell-based; conditions: Mus musculus
L1210 [9] = experiment: Tested for inhibition of L1210 cell growth by the compound at a dose of >12.5 uM and after 96 hr; conditions: Mus musculus
L1210 [10] = experiment: Tested for inhibition of L1210 cell growth by the compound at a dose of >12.5 uM and after 48 hr; conditions: Mus musculus
L1210 [11] = experiment: Tested for inhibition of L1210 cell growth by the compound at a dose of 50 uM and after 48 hr; No inhibition at 50 uM; format: functional, cell-based; conditions: Mus musculus
L1210 [12] = experiment: Tested for inhibition of L1210 cell growth by the compound at a dose of 50 uM and after 96 hr; No inhibition at 50 uM; format: functional, cell-based; conditions: Mus musculus
L1210 [13] = experiment: Percent of clonogenic L1210 cells to relative to control was determined after the treatment with the compound of 10 uM was for 72 hr; format: functional, Mus musculus
Mus musculus [14] = experiment: % increase in life span in L1210 leukemic mice was calculated at 10 mg/kg by ip administration; format: functional; conditions: route intraperitoneal
Mus musculus [15] = experiment: % increase in life span in L1210 leukemic mice was calculated at 17.5 mg/kg by ip administration; format: functional; conditions: route intraperitoneal
L1210 [16] = experiment: Percent of clonogenic L1210 cells to relative to control was determined after the treatment with the compound of 10 uM was for 96h; format: functional, Mus musculus
HL-60 [17] = experiment: Inhibitory concentration against growth of cultured HL-60 cells at 144 hrs.; format: functional, cell-based; conditions: Homo sapiens, HL-60, 144 h
[18] = Ratio of survivors to the total mice in the test group; 4/8; format: functional
Mus musculus [19] = experiment: Mean survival of mice with L1210 leukemia was evaluated on day 60 at 20 mg/kg by ip administration (schedule: Q8H,1-4days); format: functional; conditions: route intraperitoneal
[20] = Inhibitory concentration against growth of cultured […] cells at 144 hrs.; format: functional; conditions: Homo sapiens
Mus musculus [21] = experiment: % increase in life span in L1210 leukemic mice was calculated at 20 mg/kg by ip administration; format: functional; conditions: route intraperitoneal
Mus musculus [22] = species: Mus musculus; experiment: Ratio of survivors to the total mice in the test group; 0/13; format: functional
[23] = Ratio of survivors to the total mice in the test group; 9/16; format: functional
Mus musculus [24] = experiment: Mean survival of mice with L1210 leukemia was evaluated on day 60 at 10 mg/kg by ip administration (schedule: Q8H,1-6days); format: functional; conditions: route intraperitoneal
L1210 [25] = experiment: Percent of clonogenic L1210 cells to relative to control was determined after the treatment with the compound of 10 uM was for 48 hr; format: functional, Mus musculus
[26] = Ratio of survivors to the total mice in the test group; 0/4; format: functional
[27] = Ratio of survivors to the total mice in the test group; 0/8; format: functional
[28] = Ratio of survivors to the total mice in the test group; 0/6; format: functional
Mus musculus [29] = experiment: Mean survival of L1210 leukemic mice was evaluated on day 60 at 15 mg/kg by ip administration (schedule: Q8H,1-6days); format: functional; conditions: route intraperitoneal
Mus musculus [30] = experiment: % increase in life span in mice was calculated at 5 mg/kg by ip administration; format: functional; conditions: route intraperitoneal
[31] = Inhibitory concentration against growth of cultured […] cells at 72 hrs.; format: functional; conditions: Homo sapiens
Mus musculus [32] = experiment: % increase in life span in mice was calculated at 15 mg/kg by ip administration; format: functional; conditions: route intraperitoneal
Mus musculus [33] = experiment: Mean survival of mice with 10e 5 L1210 cells was evaluated on day 60 at 15 mg/kg by ip administration (schedule: Q12H,1-6days); format: functional; conditions: route intraperitoneal
Mus musculus [34] = experiment: Mean survival of mice with L1210 leukemia was evaluated on day 60 at 20 mg/kg by ip administration (schedule: Q8H,1-3days); format: functional; conditions: route intraperitoneal
HL-60 [35] = experiment: Inhibitory concentration against growth of cultured HL-60 cells at 72 hrs.; format: functional, cell-based; conditions: Homo sapiens, HL-60, 72 h
Mus musculus [36] = experiment: Mean survival of mice with L1210 leukemia on day 60 at 5 mg/kg by ip administration (schedule: Q8H,1-6days); format: functional; conditions: route intraperitoneal
L1210 [37] = experiment: Percent of clonogenic L1210 cells to relative to control was determined after the treatment with the compound of 10 uM was for 24 hr; format: functional, Mus musculus
[38] = Ratio of survivors to the total mice in the test group; 0/47; format: functional
[39] = Ratio of survivors to the total mice in the test group; 0/10; format: functional
Mus musculus [40] = experiment: % increase in life span in L1210 leukemic mice was calculated at 15 mg/kg by ip administration; format: functional; conditions: route intraperitoneal
Mus musculus [41] = experiment: Mean survival of mice with L1210 leukemia was evaluated on day 60 at 17.5 mg/kg by ip administration (schedule: Q8H,1-6days); format: functional; conditions: route intraperitoneal
Mus musculus [42] = species: Mus musculus; experiment: Mean survival of mice with L1210 leukemia was evaluated on day 60 with no treatment; format: functional

Compound: CCNCCCCNCCCNCC
- IC50 (L1210 [1]): 10000 nM
- inhibition at 30 µM (L1210 [2]): 61%

Compound: CCNCCCNCCCNCCCCNCCCNCCCNCC
- IC50 (L1210 [3]): 50 µM
- IC50 (L1210 [1]): 500 nM

Compound: CCCNCCCNCCCCNCCCNCCC
- IC50 (L1210 [3]): 3 µM
- IC50 (L1210 [1]): 200 nM

Compound: CCN(CC)CCCNCCCCNCCCN(CC)CC
- IC50 (L1210 [1]): 5000 nM
- inhibition at 50 µM (L1210 [4]): 80%

Compound: CCNCCCN(CC)CCCCN(CC)CCCNCC
- IC50 (L1210 [3]): 100 µM
- IC50 (L1210 [1]): 3000 nM

Compound: CNCCCNCCCCNCCCNC
- control growth at 100 µM (L1210 [5]): 60%
- IC50 (L1210 [1]): 750 nM

Compound: CCCNCCCCNCCCNCCC
- inhibition at 30 µM (L1210 [6]): 83%
- inhibition at 30 µM (L1210 [2]): 88%

Compound: CCN(CCCN)CCCCN(CC)CCCN
- inhibition (L1210 [7]): No inhibition
- inhibition (L1210 [8]): No inhibition

Compound: CCNCCCCCCCCCCCCNCC
- inhibition (L1210 [9]): No inhibition
- inhibition (L1210 [10]): No inhibition

Compound: CCNCCCN1CCN(CCCNCC)CC1
- inhibition (L1210 [11]): No inhibition
- inhibition (L1210 [12]): No inhibition

Compound: CCNCCCNCCCCNCCCNCC [BIS(ETHYL)SPERMINE]
- Clones (L1210 [13]): 21%
- ILS at 10 mg/kg (Mus musculus [14]): 264%
- ILS at 17.5 mg/kg (Mus musculus [15]): 439%
- Clones (L1210 [16]): 2%
- IC50 (HL-60 [17]): 300 nM
- S/T [18]: 0.5
- Mean survival (Mus musculus [19]): 18.1 days
- IC50 [20]: 500 nM
- ILS (Mus musculus [21]): 57% and 103%
- S/T (Mus musculus [22]): 0
- S/T [23]: 0.562
- Mean survival (Mus musculus [24]): 35.3 days
- Clones (L1210 [25]): 75%
- S/T [26]: 0
- S/T [27]: 0
- S/T [28]: 0
- IC50 (L1210 [3]): 10 µM
- Mean survival (Mus musculus [29]): 46.6 days
- IC50 (L1210 [1]): 100 nM
- ILS at 5 mg/kg (Mus musculus [30]): 25%
- IC50 [31]: > 40 µM
- ILS at 15 mg/kg (Mus musculus [32]): 376%
- Mean survival (Mus musculus [33]): 14.9 days
- Mean survival (Mus musculus [34]): 14 days
- IC50 (HL-60 [35]): 10 µM
- Mean survival (Mus musculus [36]): 12.3 days
- Clones (L1210 [37]): 100%
- S/T [38]: 0
- S/T [39]: 0
- ILS at 15 mg/kg (Mus musculus [40]): 55%
- Mean survival (Mus musculus [41]): 52.3 days
- Mean survival (Mus musculus [42]): 9.7 days and 8.9 days
